From patent US7790895B2, “Quinoline derivatives as potassium ion channel openers” (Janssen Pharmaceutica NV, priority 2005, dated 2010) come the findings set out here.

The test concerns the target T1, KATP channels (Homo sapiens, UniProt O60706).
T1 construct: TE671 human medulloblastoma cells were obtained from ATCC; host or cells: TE671 human medulloblastoma cells
The experiment in a line: Potassium Channel Assay (FLIPR membrane potential, KATP channel opening). Particulars: TE671 human medulloblastoma cells, Membrane Potential Assay Dye, room temperature; for % Stimulation: test concentration not given. The format is cell-based. As for the experimental part: TE671 human medulloblastoma cells were obtained from ATCC and grown in Dulbecco's modified Eagle's medium (DMEM) supplemented with 10% fetal bovine serum, 100 U/ml penicillin and 100 U/ml streptomycine.
The day before testing, the cells were plated in black 96-well plates at 50K/well. On the day of testing, the growth media was removed, then 100 μl of FLIPR buffer (20 mM HEPES, 120 mM NaCl, 2 mM KCl, 2 mM CaCl2, 1 mM MgCl2, 5 mM Glucose) and 100 μl of Membrane Potential Assay Dye (Molecular Devices) dissolved in FLIPR buffer were added to each well. The cells were incubated at room temperature for 15 to 30 min.
The effect of test compounds on KATP channels were evaluated on a fluorometric imaging plate reader (FLIPR, Molecular Devices) at room temperature. After a baseline period, 50 μl of 5× stock solution of test compound prepared in FLIPR buffer was added and fluorescence change was monitored for 3 minutes. After this reading, glyburide, a KATP channel blocker, was added to a final concentration of 5 μM to check the specificity of the test compound as a KATP channel opener. Hyperpolarization resulting from KATP channel opening was observed as a decrease in fluorescence intensity.

T1 sequence (O60706 1-1549 isoform O60706-2): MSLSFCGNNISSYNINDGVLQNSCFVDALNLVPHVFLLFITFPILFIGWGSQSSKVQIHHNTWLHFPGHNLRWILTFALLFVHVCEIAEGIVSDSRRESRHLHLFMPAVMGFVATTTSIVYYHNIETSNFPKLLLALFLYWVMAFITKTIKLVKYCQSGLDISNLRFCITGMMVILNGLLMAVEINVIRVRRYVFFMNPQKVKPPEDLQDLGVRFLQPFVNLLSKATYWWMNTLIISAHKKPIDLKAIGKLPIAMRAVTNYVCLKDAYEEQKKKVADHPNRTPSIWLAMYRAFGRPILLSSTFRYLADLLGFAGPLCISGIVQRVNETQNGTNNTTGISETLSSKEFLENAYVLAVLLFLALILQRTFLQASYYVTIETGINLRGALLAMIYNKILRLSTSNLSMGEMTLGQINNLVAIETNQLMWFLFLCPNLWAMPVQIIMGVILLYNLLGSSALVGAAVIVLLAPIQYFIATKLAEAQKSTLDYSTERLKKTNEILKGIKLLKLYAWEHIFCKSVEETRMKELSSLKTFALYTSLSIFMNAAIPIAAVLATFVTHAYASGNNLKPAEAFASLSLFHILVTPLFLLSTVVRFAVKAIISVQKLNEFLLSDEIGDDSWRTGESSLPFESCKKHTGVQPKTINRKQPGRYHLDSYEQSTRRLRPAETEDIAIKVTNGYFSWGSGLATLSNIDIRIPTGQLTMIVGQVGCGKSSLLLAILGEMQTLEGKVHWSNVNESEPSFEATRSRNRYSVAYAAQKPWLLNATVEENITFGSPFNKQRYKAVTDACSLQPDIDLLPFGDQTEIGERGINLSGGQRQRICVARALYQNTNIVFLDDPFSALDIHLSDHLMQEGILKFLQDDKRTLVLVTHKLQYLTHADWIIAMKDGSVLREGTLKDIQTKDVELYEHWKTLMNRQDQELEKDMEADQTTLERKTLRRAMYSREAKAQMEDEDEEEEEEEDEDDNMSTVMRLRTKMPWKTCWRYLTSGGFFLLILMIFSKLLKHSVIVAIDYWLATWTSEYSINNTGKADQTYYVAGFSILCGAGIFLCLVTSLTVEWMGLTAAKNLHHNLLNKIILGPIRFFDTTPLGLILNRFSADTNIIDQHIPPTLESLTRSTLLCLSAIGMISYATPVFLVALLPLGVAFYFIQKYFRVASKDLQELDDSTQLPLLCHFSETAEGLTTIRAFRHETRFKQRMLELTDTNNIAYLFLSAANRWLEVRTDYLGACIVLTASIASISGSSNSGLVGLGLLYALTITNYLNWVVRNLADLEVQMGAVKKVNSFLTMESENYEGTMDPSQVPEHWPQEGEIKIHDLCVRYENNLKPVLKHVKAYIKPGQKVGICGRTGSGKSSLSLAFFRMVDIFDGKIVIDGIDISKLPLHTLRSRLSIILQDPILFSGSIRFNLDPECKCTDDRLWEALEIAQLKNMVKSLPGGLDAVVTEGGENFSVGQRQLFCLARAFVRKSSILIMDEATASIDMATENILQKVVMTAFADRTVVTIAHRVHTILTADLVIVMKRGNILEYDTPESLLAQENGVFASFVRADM
T1 sequence (Q14654 whole entry partner): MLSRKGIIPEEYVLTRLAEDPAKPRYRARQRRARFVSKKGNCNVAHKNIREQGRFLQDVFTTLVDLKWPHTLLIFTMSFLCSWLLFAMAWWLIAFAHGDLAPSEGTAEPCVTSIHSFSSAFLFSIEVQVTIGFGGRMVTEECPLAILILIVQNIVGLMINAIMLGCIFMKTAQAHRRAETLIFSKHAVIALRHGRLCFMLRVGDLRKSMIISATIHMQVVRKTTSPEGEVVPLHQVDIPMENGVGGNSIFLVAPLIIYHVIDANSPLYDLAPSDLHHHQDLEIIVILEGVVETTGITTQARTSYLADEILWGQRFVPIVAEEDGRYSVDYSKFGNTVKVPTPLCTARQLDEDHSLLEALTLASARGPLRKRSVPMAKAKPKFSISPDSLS

In the case of `N#Cc1cccc(-c2ccncc2C(O)c2ccc(Cl)c(Cl)c2)c1` (stereo not drawn) [Compound 24, 3-{3-[(3,4-Dichloro-phenyl)-hydroxy-methyl]-pyridin-4-yl}-benzonitrile], the EC50 was determined as 14.5 µM.
Same read-out and setting: the figure for `CCOC(=O)c1ccc(-c2c(C(=O)OCC)cnc3cc(C(F)(F)F)ccc23)cc1` [Compound 4, 4-(4-Ethoxycarbonyl-phenyl)-7-trifluoromethyl-quinoline-3-carboxylic acid ethyl ester] is more than 30 µM.
Same read-out and setting: the figure for `CCOC(=O)c1cnc2cc(C(F)(F)F)ccc2c1OS(=O)(=O)C(F)(F)F` [Compound 15, 4-Trifluoromethanesulfonyloxy-7-trifluoromethyl-quinoline-3-carboxylic acid ethyl ester] is 6.27 µM; for `CN(C)c1ccc(C(O)c2cnccc2C(=O)c2ccccc2)cc1` (stereo not drawn) [Compound 44, {3-[(4-Dimethylamino-phenyl)-hydroxy-methyl]-pyridin-4-yl}-phenyl-methanone] it is 17.4 µM; for `O=C(c1ccccc1)c1ccncc1C(O)c1cccc(F)c1` (stereo not drawn) [Compound 47, {3-[(3-Fluoro-phenyl)-hydroxy-methyl]-pyridin-4-yl}-phenyl-methanone] it is 5.09 µM.
On to `CCOC(=O)c1cnc2cc(C(F)(F)F)ccc2c1-c1ccc(-c2ccccc2)cc1` [Compound 5, 4-Biphenyl-4-yl-7-trifluoromethyl-quinoline-3-carboxylic acid ethyl ester], for which the EC50 is more than 30 µM.
On the same count and under the same terms, then `N#Cc1cccc(-c2ccncc2C(O)c2ccccc2)c1` (stereo not drawn) [Compound 19, 3-[3-(Hydroxy-phenyl-methyl)-pyridin-4-yl]-benzonitrile], with 9.63 µM.
For the molecule `CCOC(=O)c1cnc2cc(C(F)(F)F)ccc2c1-c1cccc(CO)c1` [Compound 12, 4-(3-Hydroxymethyl-phenyl)-7-trifluoromethyl-quinoline-3-carboxylic acid ethyl ester], the EC50 is more than 30 µM and the “% Stimulation” value was found to be 20%.
On to `COc1ccc(C(O)c2cnccc2-c2cccc(C#N)c2)cc1F` (stereo not drawn) [Compound 37, 3-{3-[(3-Fluoro-4-methoxy-phenyl)-hydroxy-methyl]-pyridin-4-yl}-benzonitrile], for which the EC50 came out at 9.59 µM.
The molecule `CCOC(=O)c1cnc2cc(C(F)(F)F)ccc2c1-c1cc(CO)ccc1OC` [Compound 14, 4-(5-Hydroxymethyl-2-methoxy-phenyl)-7-trifluoromethyl-quinoline-3-carboxylic acid ethyl ester] displayed an EC50 of 4.56 µM.
In turn, `COc1ccc(C(O)c2cnccc2C(=O)c2ccccc2)cc1F` (stereo not drawn) [Compound 45, {3-[(3-Fluoro-4-methoxy-phenyl)-hydroxy-methyl]-pyridin-4-yl}-phenyl-methanone] registered an EC50 of 11.6 µM.
`CCOC(=O)c1cnc2cc(C(F)(F)F)ccc2c1-c1cc(C)cc(OC)c1` [Compound 2, 4-(3-Methoxy-5-methyl-phenyl)-7-trifluoromethyl-quinoline-3-carboxylic acid ethyl ester] displayed an EC50 of more than 30 µM.
The same measure, in the same setting: the figure for `COc1ccc(CO)cc1-c1ccncc1CO` [Compound 58] is more than 30 µM; for `CC(C)(C)c1ccc(C(O)c2cnccc2-c2cccc(C#N)c2)cc1` (stereo not drawn) [Compound 27, 3-{3-[(4-tert-Butyl-phenyl)-hydroxy-methyl]-pyridin-4-yl}-benzonitrile] it is 10.7 µM.
Same read-out and setting: the figure for `Cc1ccccc1C(O)c1cnccc1-c1cccc(C#N)c1` (stereo not drawn) [Compound 31, 3-{3-[Hydroxy-(2-methyl-phenyl)-methyl]-pyridin-4-yl}-benzonitrile] is 15 µM; for `N#Cc1cccc(-c2ccncc2C(O)c2ccc(F)c(F)c2)c1` (stereo not drawn) [Compound 23, 3-{3-[(3,4-Difluoro-phenyl)-hydroxy-methyl]-pyridin-4-yl}-benzonitrile] it is 11.4 µM; for `CC(C)C(O)c1cnccc1Br` (stereo not drawn) [Compound 63, 1-(4-Bromo-pyridin-3-yl)-2-methyl-propan-1-ol] it is 7.97 µM.
Same read-out and setting: the figure for `CC(O)c1cnccc1-c1cccc(C#N)c1` (stereo not drawn) [Compound 52, 3-[3-(1-Hydroxy-ethyl)-pyridin-4-yl]-benzonitrile] is 17.2 µM; for `CC(O)c1cnccc1C(=O)c1ccccc1` (stereo not drawn) [Compound 59, [3-(1-Hydroxy-ethyl)-pyridin-4-yl]-phenyl-methanone] it is 26.8 µM.
Regarding `COc1ccc(C=O)cc1-c1ccncc1C=O` [Compound 53, 4-(5-Formyl-2-methoxy-phenyl)-pyridine-3-carbaldehyde], the EC50 was more than 30 µM and the “% Stimulation” value turned out to be 30%.
The like results for `CCOC(=O)c1cnc2cc(C(F)(F)F)ccc2c1-c1ccc(C)c(C)c1` [Compound 13, 4-(3,4-Dimethyl-phenyl)-7-trifluoromethyl-quinoline-3-carboxylic acid ethyl ester] were, in that order, more than 30 µM and 0%.
Regarding `CCOC(=O)c1cnc2cc(C(F)(F)F)ccc2c1-c1cc(C(F)(F)F)cc(C(F)(F)F)c1` [Compound 3, 4-(3,5-Bis-trifluoromethyl-phenyl)-7-trifluoromethyl-quinoline-3-carboxylic acid-ethyl ester], the EC50 is more than 30 µM.
Same read-out and setting: the figure for `COc1cccc(C(O)c2cnccc2-c2cccc(C#N)c2)c1` (stereo not drawn) [Compound 29, 3-{3-[Hydroxy-(3-methoxy-phenyl)-methyl]-pyridin-4-yl}-benzonitrile] is 13.7 µM.
The same measure, in the same setting: the figure for `N#Cc1cccc(-c2ccncc2CO)c1` [Compound 50, 3-(3-Hydroxymethyl-pyridin-4-yl)-benzonitrile] is more than 30 µM; for `COc1ccc(F)cc1C(O)c1cnccc1-c1cccc(C#N)c1` (stereo not drawn) [Compound 36, 3-{3-[(5-Fluoro-2-methoxy-phenyl)-hydroxy-methyl]-pyridin-4-yl}-benzonitrile] it is more than 30 µM; for `N#Cc1cccc(-c2ccncc2C(O)C(F)(F)F)c1` (stereo not drawn) [Compound 39, 3-[3-(2,2,2-Trifluoro-1-hydroxy-ethyl)-pyridin-4-yl]-benzonitrile] it is 10.5 µM.
Take `COc1ccccc1C(O)c1cnccc1-c1cccc(C#N)c1` (stereo not drawn) [Compound 28, 3-{3-[Hydroxy-(2-methoxy-phenyl)-methyl]-pyridin-4-yl}-benzonitrile]: the EC50 worked out at 10.2 µM.
Regarding `CCOC(=O)c1cnc2cc(C(F)(F)F)ccc2c1-c1cccc(C=O)c1` [Compound 11, 4-(3-Formyl-phenyl)-7-trifluoromethyl-quinoline-3-carboxylic acid ethyl ester], the EC50 was more than 30 µM and the “% Stimulation” value was determined as 2%.
Take `CCOC(=O)c1cnc2cc(C(F)(F)F)ccc2c1-c1cc(C(F)(F)F)ccc1F` [Compound 8, 4-(2-Fluoro-5-trifluoromethyl-phenyl)-7-trifluoromethyl-quinoline-3-carboxylic acid ethyl ester]: the EC50 was more than 30 µM.
The same measure, in the same setting: the figure for `N#Cc1cccc(C(O)c2ccncc2CO)c1` (stereo not drawn) [Compound 57, 3-[Hydroxy-(3-hydroxymethyl-pyridin-4-yl)-methyl]-benzonitrile] is more than 30 µM; for `Cc1ccc(F)cc1C(O)c1cnccc1-c1cccc(C#N)c1` (stereo not drawn) [Compound 38, 3-{3-[(5-Fluoro-2-methyl-phenyl)-hydroxy-methyl]-pyridin-4-yl}-benzonitrile] it is more than 30 µM; for `N#Cc1cccc(-c2ccncc2C(O)c2ccc(Cl)cc2)c1` (stereo not drawn) [Compound 26, 3-{3-[(4-Chloro-phenyl)-hydroxy-methyl]-pyridin-4-yl}-benzonitrile] it is 10.2 µM.

The EC50 is the concentration giving half of the maximal effect. High values mean a need for much substance, low ones an effect from little substance.
